Earlier results, collected in patent publication US20040167197A1, “Compositions, combinations, and methods for treating cardiovascular conditions and other associated conditions” (priority 2003, published 2004).

System: rat model of cardiac hypertrophy and dysfunction

## COc1nccc(-c2c(-c3ccc(F)cc3)ncn2[C@H]2CC[C@H](O)CC2)n1 [trans-1-(4-hydroxycyclohexyl)-4-(4-fluorophenylmethoxypyridimidin-4-yl)imidazole]
  hypertensive end-organ damage: protected against
  plasma tumor necrosis factor (TNF-α): reduced
  survival: improved
